Patent publication US8293700B2, “Anti-bacterial composition especially for controlling gram-negative bacteria, comprising a peptide and an advantageously hydrophobic anti-bacterial agent” (Cellectis, priority 2003, dated 2012)
Where no end group is shown, it is not given here.

What was measured:
[1] = tested on: Gram-negative bacterium (E. coli, P. aeruginosa); assay: Classification of DPVs by internalization level in the two bacterial strains; type: cell-based; settings: for Classification of DPVs: level of internalization: DPV-Bodipy conjugates, accumulation in bacterial cytoplasm, E. coli and P. aeruginosa; for Internalization properties in prokaryotic cells (Gram-negative bacteria): compared with the eukaryotic cell
Protocol: (§1) The bacteria in an exponential phase of culture were centrifuged and washed three times with the 10 mM, pH7.4 sodium phosphate buffer (NAPB buffer). The bacterial concentration was adjusted to 1×10^6 cfu/ml (colony-forming units) in the NAPB buffer. 50 μl of the bacterial suspension was deposited on a poly-L-Lysine slide. After 30 minutes incubation at 37° C. in a humid chamber, the bacteria immobilized on the slide were rinsed three times with the NAPB buffer. A 50 μl solution of DPV-Bodipy or DPV-TMR conjugate or control product was, deposited on the bacteria. After incubation for 30 minutes at 37° C. in a humidity chamber and away from light, the slides were rinsed three times with the NAPB buffer. The bacteria may be fixed on the slide by incubating 20 minutes at 37° C., away from light. A drop of 50% PBS/Glycerol was deposited on the slide and covered by a cover glass. After sealing the cover glass on the slide, bacterial fluorescence was observed under a Leica epifluorescence optical microscope (40× or 63× immersion lens). The images were taken with a digital Nikon Coolpix camera with maximum zoom and a 0.63× adapter. A more detailed analysis was performed with a confocal Bio-rad MRC 600 microscope (BIO-RAD Microscience Ltd., Hemel Hempstead, England), provided with an inverse optical microscope and an ×100 immersion lens. The bacteria were visualized by their fluorescence after excitation with a krypton/argon laser. Several sections of 0.1-0.2 μm bacteria were made.
Generally, the internalization of DPV is almost identical for the two bacterial strains that were studied.

eukaryotic cells = settings: cited from earlier work; for Localization in the eukaryotic cells: chemically coupled to the peroxydase protein or IgG, WO 01/64738
[2] = tested on: Pseudomonas aeruginosa ATCC 27853; assay: Internalization of DPV-Bodipy conjugates in P. aeruginosa (epifluorescence microscopy); type: cell-based; settings: tested as Bodipy conjugate, 1 μM, 30 minutes at 37° C.
Protocol: as §1, with “A more detailed analysis was performed with a confocal Bio-rad MRC 600 microscope (BIO-RAD Microscience Ltd., Hemel Hempstead, England), provided with an inverse optical microscope and an ×100 immersion lens.” left out, “Several sections of 0.1-0.2 μm bacteria were made.” left out

P. aeruginosa = assay: Confocal microscopy localization in P. aeruginosa; type: cell-based, Pseudomonas aeruginosa; settings: 3 μM, 37° C., 30 mins., bacteria fixed
Protocol: as §1, with “A more detailed analysis was performed with a confocal Bio-rad MRC 600 microscope (BIO-RAD Microscience Ltd., Hemel Hempstead, England), provided with an inverse optical microscope and an ×100 immersion lens.” left out, “Several sections of 0.1-0.2 μm bacteria were made.” left out

[3] = tested on: Escherichia coli ATCC 25922; assay: Internalization of DPV fluorescent conjugates in E. coli (epifluorescence microscopy); type: cell-based; settings: tested as Bodipy conjugate, 1 μM, 30 minutes at 37° C., non-fixed bacteria
Protocol: as §1
The immobilized bacteria on a poly-L-Lysine slide were incubated with 1 μM of DPV-Bodipy conjugate for 30 minutes at 37° C.
The E. coli bacteria were incubated for 30 minutes at 37° C. with 1 μM of DPV-Bodipy conjugate, as described in paragraph I.8.a. The internalization of fluorescent DPV-Bodipy conjugates in the non-fixed bacteria was visualized under an epifluorescence microscope. […] With the DPV11 and DPV12 peptides (FIGS. 31 and 3J), heterogeneous fluorescence levels in one single bacterial population was obtained. The internalization properties of these peptides were weaker. […] (FIG. 3L).
The internalization of the DPV3 TMR conjugate was evaluated on E. coli bacteria immobilized on a poly-L-Lysine slide or in suspension. The bacteria were incubated with 1 μM of DPV3-TMR conjugate or the Cyst-TMR control for 30 minutes at 37° C., and then either fixed or not on the slide before visualization in an epifluorescence optical microscope.

E. coli ATCC 25922 = assay: Chessboard method, DPV peptide and erythromycin, E. coli; type: cell-based, Escherichia coli; settings: MH medium, 18 hours at 37° C.
Protocol: The dilution ranges were prepared according to a geometric progression of ration 2. 25 μl of the product solutions in MH medium with a concentration four times higher than the desired final concentration or 25 μl of the MH medium (for the lines 0), were distributed in the wells according to the chart below (Table 2), in order to obtain a final volume of 50 μl per well: An isolated colony of the bacterium E. coli ATCC 25922 or P. aeruginosa ATCC 27853 was placed in suspension in 3 to 5 ml of the MH culture medium and incubated at 37° C. for one night, while stirring. From this night culture, a culture in exponential growth phase of the strain was made; the MH medium was seeded at 1/50 é with the night culture and incubated for two hours at 37° C., while stirring. The bacterial concentration was adjusted to 5×10^5-10 s cfu/ml (colony-forming units) in the MH medium. […] The CMI was expressed in μg/ml (mg/1). […] An index below or equal to 0.5 indicates a synergy, an index above 2, an antagonism.

Row | Substance | Classification of DPVs: level of internalization [1] | Localization in the eukaryotic cells (eukaryotic cells) | Internalization in P. aeruginosa compared with E. coli (FIG. 5) [2] | Localization of Bodipy conjugate in P. aeruginosa (confocal, FIG. 6) (P. aeruginosa) | Internalization in E. coli (description of FIG. 3) [3] | CMI, product alone (E. coli ATCC 25922) [µg/mL] | Internalization properties in prokaryotic cells (Gram-negative bacteria) [1] | Internalization properties in the eukaryotic cell (eukaryotic cells)
1 | Gly Ala Tyr Asp Leu Arg Arg Arg Glu Arg Gin Ser Arg Leu Arg Arg Arg Glu Arg Gin Ser Arg (GAYDLRRRERQSRLRRRERQSR; N-terminal Cys; listed as Homo sapiens) [DPV15b] | weak internalization | nuclear localization peptides |  |  |  |  |  | 
2 | Val Lys Arg Gly Leu Lys Leu Arg His Val Arg Pro Arg Val Thr Arg Met Asp Val (VKRGLKLRHVRPRVTRMDV; N-terminal Cys added; listed as Homo sapiens) [DPV1047] | weak internalization | nuclear localization peptides |  |  |  |  |  | 
3 | Gly Lys Arg Lys Lys Lys Gly Lys Leu Gly Lys Lys Arg Pro Arg Ser Arg (GKRKKKGKLGKKRPRSR; C-terminal Cys; listed as Homo sapiens) [DPV7b] | medium internalization | cytoplasmic localization peptides | more internalizing in P. aeruginosa than in E. coli | able to pass through the external membrane |  |  |  | 
4 | RKKRRRESRKKRRRES [DPV3] | elevated internalization | cytoplasmic localization peptides |  | able to pass through the external membrane | highly penetrating | 128 |  | 
5 | Val Lys Arg Gly Leu Lys Leu Arg Gin Lys Tyr Asn Lys Arg Ala Met Asp Tyr (VKRGLKLRQKYNKRAMDY; N-terminal Cys added; listed as Homo sapiens) [DPV1121] | weak internalization | nuclear localization peptides |  |  |  |  |  | 
6 | Gin Gly Lys Ser Lys Arg Glu Lys Lys Asp Arg Val Phe (QGKSKREKKDRVF; C-terminal Cys; listed as Homo sapiens) [DPV12] |  |  |  |  | weaker |  | same property | do not have any internalization properties
7 | Gly Lys Arg Lys Lys Lys Gly Lys Leu Gly Lys Lys Arg Asp Pro (GKRKKKGKLGKKRDP; C-terminal Cys; listed as Homo sapiens) [DPV7] | medium internalization | cytoplasmic localization peptides |  |  |  |  |  | 
8 | Asn Pro Gly Val Ser Thr Val Val Leu Gly Ala Tyr Asp Leu Arg Arg Arg Glu Arg Gin Ser Arg (NPGVSTVVLGAYDLRRRERQSR; N-terminal Cys; listed as Homo sapiens) [DPV19] |  |  |  |  | did not penetrate into the bacteria |  | same property | do not have any internalization properties
9 | Leu Arg Arg Glu Arg Gin Ser Arg Leu Arg Arg Glu Arg Gin Ser Arg (LRRERQSRLRRERQSR; C-terminal Cys; listed as Homo sapiens) [DPV15] | medium internalization | nuclear localization peptides |  |  | highly penetrating |  |  | 
10 | Gly Arg Pro Arg Glu Ser Gly Lys Lys Arg Lys Arg Lys Arg Leu Lys Pro (GRPRESGKKRKRKRLKP; C-terminal Cys; listed as Homo sapiens) [DPV6] | medium internalization | cytoplasmic localization peptides | more internalizing in P. aeruginosa |  | highly penetrating |  |  | 
11 | Ala Lys Thr Gly Lys Arg Lys Arg Ser Gly (AKTGKRKRSG; C-terminal Cys added; listed as Homo sapiens) [DPV11] |  |  |  |  | weaker |  | same property | do not have any internalization properties
12 | Arg Lys Lys Arg Arg Arg Glu Ser Arg Arg Ala Arg Arg Ser Pro Arg His Leu (RKKRRRESRRARRSPRHL; C-terminal Cys; listed as Homo sapiens) [DPV3.10] | elevated internalization | cytoplasmic localization peptides |  |  | highly penetrating |  |  | 
